Experimental data from ChEMBL document CHEMBL1201862, “PubChem BioAssay data set” (2004).
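48-hour exposure; five concentrations; linearly interpolated endpoints. GI50 = concentration required for 50% inhibition of growth.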 Calls of active or inactive are those of the source. Rule as the data show it: active = GI50 up to about 1.1 µM and inactive = higher.

Legend:
Test in all cases: inhibition of tumour cell growth, NCI panel, 48 h
OVCAR-3 = test system: OVCAR-3
HT-29 = test system: HT-29
U-251 = test system: U-251
KM12 = test system: KM12
SW-620 = test system: SW-620
SF-539 = test system: SF-539
SN12C = test system: SN12C
RXF 393 = test system: RXF 393
MOLT-4 = test system: MOLT-4
SF-268 = test system: SF-268
HCT-116 = test system: HCT-116
SNB-19 = test system: SNB-19
UACC-62 = test system: UACC-62
Malme-3M = test system: Malme-3M
MDA-N = test system: MDA-N
OVCAR-5 = test system: OVCAR-5
CCRF-CEM = test system: CCRF-CEM
COLO 205 = test system: COLO 205
SK-OV-3 = test system: SK-OV-3
TK-10 = test system: TK-10

Measured: GI50

CCCCCCc1cc2cc(C(=O)NCc3ccccc3)c(=N)oc2cc1O
inactive: OVCAR-3 > 100 µM | HT-29 > 100 µM | U-251 > 100 µM | KM12 > 100 µM | SW-620 > 100 µM | SF-539 > 100 µM | SN12C > 100 µM | RXF 393 > 100 µM | MOLT-4 > 100 µM | SF-268 > 100 µM | HCT-116 > 100 µM | SNB-19 > 100 µM | UACC-62 > 100 µM | Malme-3M > 100 µM | MDA-N > 100 µM | OVCAR-5 > 100 µM | CCRF-CEM > 100 µM | COLO 205 > 100 µM | SK-OV-3 > 100 µM

COC1(OC)N=C(N)C2(C#N)C3(C(=O)N(C(C)C)N=C3C)C12C#N (stereo not drawn)
inactive: OVCAR-3 49.7 µM | HT-29 > 100 µM | U-251 > 100 µM | KM12 > 100 µM | SW-620 > 100 µM | SF-539 > 100 µM | SN12C > 100 µM | RXF 393 > 100 µM | MOLT-4 > 100 µM | SF-268 > 100 µM | HCT-116 > 100 µM | SNB-19 > 100 µM | UACC-62 > 100 µM | Malme-3M > 100 µM | MDA-N > 100 µM | OVCAR-5 > 100 µM | CCRF-CEM > 100 µM | COLO 205 > 100 µM | SK-OV-3 > 100 µM

COc1ccc(/N=N/c2c(O)ccc3ccccc23)cc1
inactive: OVCAR-3 28.6 µM | HT-29 17 µM | U-251 15.8 µM | KM12 12.1 µM | SW-620 86.1 µM | SN12C > 100 µM | RXF 393 41.2 µM | MOLT-4 > 100 µM | SF-268 16.1 µM | HCT-116 > 100 µM | TK-10 17.1 µM | UACC-62 15.6 µM | Malme-3M 14.1 µM | MDA-N > 100 µM | OVCAR-5 17.5 µM | CCRF-CEM > 100 µM | COLO 205 > 100 µM | SK-OV-3 8.2 µM

Cn1c(N)c(/C=N/NC(=O)CC#N)c(=O)n(C)c1=O
inactive: OVCAR-3 > 100 µM | HT-29 > 100 µM | U-251 > 100 µM | KM12 > 100 µM | SW-620 > 100 µM | SN12C > 100 µM | RXF 393 > 100 µM | MOLT-4 > 100 µM | SF-268 > 100 µM | HCT-116 > 100 µM | SNB-19 > 100 µM | TK-10 > 100 µM | UACC-62 > 100 µM | Malme-3M 59.8 µM | MDA-N > 100 µM | OVCAR-5 > 100 µM | CCRF-CEM > 100 µM | COLO 205 > 100 µM | SK-OV-3 > 100 µM

COc1ccc2[nH]c(CCNC(=O)c3cc([N+](=O)[O-])cc([N+](=O)[O-])c3)cc2c1
inactive: OVCAR-3 > 100 µM | HT-29 > 100 µM | U-251 14.7 µM | KM12 > 100 µM | SW-620 > 100 µM | SF-539 29.8 µM | SN12C 56 µM | RXF 393 18.1 µM | MOLT-4 > 100 µM | SF-268 25 µM | HCT-116 > 100 µM | SNB-19 35.6 µM | TK-10 46.8 µM | UACC-62 36.1 µM | Malme-3M > 100 µM | MDA-N > 100 µM | CCRF-CEM > 100 µM | COLO 205 > 100 µM | SK-OV-3 41 µM

C=C/C(C)=C\CC1[C@](C)(O)CC[C@H]2C(C)(C)C(=O)CC[C@]12C (stereo partly drawn)
inactive: OVCAR-3 41.7 µM | HT-29 47.6 µM | U-251 > 100 µM | KM12 85.5 µM | SW-620 > 100 µM | SF-539 > 100 µM | SN12C > 100 µM | RXF 393 32.3 µM | MOLT-4 19.1 µM | SF-268 > 100 µM | HCT-116 47.5 µM | SNB-19 > 100 µM | TK-10 > 100 µM | UACC-62 > 100 µM | Malme-3M > 100 µM | MDA-N 96.4 µM | OVCAR-5 > 100 µM | CCRF-CEM 46.6 µM | COLO 205 92.3 µM

CCOC(=O)/C(C(=S)Nc1ccccc1)=C(/N)N1CCCC1
inactive: OVCAR-3 > 100 µM | HT-29 > 100 µM | U-251 61.2 µM | KM12 61.1 µM | SW-620 48.9 µM | SF-539 > 100 µM | SN12C > 100 µM | RXF 393 63.1 µM | MOLT-4 > 100 µM | SF-268 > 100 µM | HCT-116 65.5 µM | SNB-19 50.2 µM | TK-10 > 100 µM | UACC-62 > 100 µM | Malme-3M > 100 µM | MDA-N 31 µM | OVCAR-5 > 100 µM | CCRF-CEM 46.1 µM | COLO 205 > 100 µM

O=c1oc2c(ccc3ccccc32)cc1C1=CSC2=NCCN12
inactive: OVCAR-3 31.6 µM | HT-29 45.3 µM | U-251 59.8 µM | KM12 55.5 µM | SW-620 29.7 µM | SF-539 69.7 µM | SN12C 42.4 µM | RXF 393 33.5 µM | MOLT-4 34.2 µM | SF-268 57.9 µM | HCT-116 32.4 µM | SNB-19 38.6 µM | TK-10 49.3 µM | UACC-62 > 100 µM | Malme-3M 58.6 µM | MDA-N 51.6 µM | CCRF-CEM 30.5 µM | COLO 205 50 µM | SK-OV-3 67.3 µM

CC(=O)NNC1=NN(C(C)=O)C2(S1)C(=O)Nc1ccc(C)cc12 (stereo not drawn)
inactive: OVCAR-3 > 100 µM | HT-29 > 100 µM | U-251 41.7 µM | KM12 57.7 µM | SF-539 > 100 µM | SN12C > 100 µM | RXF 393 44.9 µM | MOLT-4 > 100 µM | SF-268 > 100 µM | HCT-116 > 100 µM | SNB-19 52.5 µM | TK-10 38.5 µM | UACC-62 39.4 µM | Malme-3M 49.7 µM | MDA-N > 100 µM | OVCAR-5 > 100 µM | CCRF-CEM 48.4 µM | COLO 205 > 100 µM

O=[N+]([O-])c1cccc(-c2ncc3c(n2)-c2ccccc2C3)c1
inactive: HT-29 > 100 µM | U-251 93.8 µM | KM12 > 100 µM | SW-620 > 100 µM | SF-539 > 100 µM | SN12C > 100 µM | RXF 393 95.1 µM | MOLT-4 > 100 µM | SF-268 51.6 µM | HCT-116 > 100 µM | SNB-19 30.3 µM | TK-10 47.1 µM | UACC-62 > 100 µM | Malme-3M > 100 µM | MDA-N > 100 µM | OVCAR-5 > 100 µM | CCRF-CEM > 100 µM | COLO 205 > 100 µM | SK-OV-3 > 100 µM
